Data from US20040224907A1, “Compositions and methods for reversal of drug resistance” (priority 2001, published 2004).

How the values were obtained:
[1] = tested on: Pgp mRNA; assay: RT-PCR with 32P-ATP of Pgp mRNA levels in BE(2)-C neuroblastoma cell line; format: cell-based; set-up: reduction in Pgp mRNA levels, dose dependence: dose or concentration left out as unconfirmed; conditions: BE(2)-C cells
Experimental: (§1) RT-PCR was performed and [^32P]ATP was incorporated into the PCR reaction. Radioactivity was measured following gel separation of PCR product.
as §1
Tests were performed in a BE(2)—C neuroblastoma cell line. This cell line was used to test the ability of (+)pentazocine to reduce levels of Pgp mRNA and corresponding protein expression in a dose-dependent manner. Pgp levels were tested at the mRNA level by reverse-transcription polymerase chain reaction (RT-PCR) in the presence of ^32P-ATP. Incorporation of the radiolabeled nucleotide was measured following electrophoresis of the PCR product.

[2] = tested on: Pgp; assay: Western blotting of Pgp protein levels in ADX cells (antibody C219); format: cell-based, Chinese hamster; conditions: 10 μM (FIG. 4)
From the text: (§2) Protein levels were monitored by Western blotting, using monoclonal antibodies specific to Pgp (e.g., C219).

[3] = tested on: Pgp; assay: Western blotting of Pgp protein levels in BE(2)-C cells (antibody C219); format: cell-based; conditions: 10 μM (FIG. 3)
Experimental: FIG. 3. depicts Western Blot showing time-dependent reduction of Pgp expression in BE(2)—C cells following 10 μM (+)pentazocine treatment.
as §2

[4] = tested on: mdr-1 gene; conditions: human neuroblastoma cells; cited from earlier work

Structure (SMILES) | decrease in Pgp mRNA ([1]; 1 μM) | time of maximal reduction in Pgp mRNA levels post-treatment ([1]; 10 μM (FIG. 1)) | reduction in Pgp mRNA levels, dose dependence ([1]; concentrations (FIG. 2)) | time of maximal decrease of Pgp protein levels [2] | time of maximal decrease of Pgp protein levels [3] | effect on expression of the mdr-1 gene [4]
CC(C)=CCN1CCC2(C)c3cc(O)ccc3CC1C2C (single isomer, unassigned; (+)) [(+)pentazocine] | two-fold decrease | 12 to 18 h | dose-dependent | 12 to 18 h | 12 to 18 h | 
Br.Br.CN(CCc1ccc(Cl)c(Cl)c1)[C@H]1CCCC[C@H]1N1CCCC1 [BD 737] |  |  |  |  |  | no significant effect
